According to ChEMBL document CHEMBL3390836, “Mannich- and LedererManasse-based analogues of the natural product S-(+)-curcuphenol as cancer proliferation and migration inhibitors” (Medchemcomm, 2012):
pIC50: −log10 of the molar value.

Legend:
T47D = assay: Cytotoxicity against human T47D cells assessed as cell growth at 10 uM after 48 hrs by SRB assay relative to control; format: functional; settings: read-out: Activity
[1] = Cytotoxicity against human Hs 578T cells assessed as cell growth at 10 uM after 48 hrs by SRB assay relative to control; format: functional; settings: read-out: Activity
[2] = Cytotoxicity against human PC3 cells assessed as cell growth at 10 uM after 48 hrs by SRB assay relative to control; format: functional; settings: PC-3, 48 h, read-out: Activity
TK-10 = assay: Cytotoxicity against human TK10 cells assessed as cell growth at 10 uM after 48 hrs by SRB assay relative to control; format: functional; settings: TK-10, 48 h, read-out: Activity
SN12C = assay: Cytotoxicity against human SN12C cells assessed as cell growth at 10 uM after 48 hrs by SRB assay relative to control; format: functional; settings: read-out: Activity
RXF 393 = assay: Cytotoxicity against human RXF393 cells assessed as cell growth at 10 uM after 48 hrs by SRB assay relative to control; format: functional; settings: RXF 393, 48 h, read-out: Activity
ACHN = assay: Cytotoxicity against human ACHN cells assessed as cell growth at 10 uM after 48 hrs by SRB assay relative to control; format: functional; settings: read-out: Activity
786-0 = assay: Cytotoxicity against human 786-0 cells assessed as cell growth at 10 uM after 48 hrs by SRB assay relative to control; format: functional; settings: 786-0, 48 h, read-out: Activity
A498 = assay: Cytotoxicity against human A498 cells assessed as cell growth at 10 uM after 48 hrs by SRB assay relative to control; format: functional; settings: A498, 48 h, read-out: Activity
[3] = Cytotoxicity against human SKOV3 cells assessed as cell growth at 10 uM after 48 hrs by SRB assay relative to control; format: functional; settings: SK-OV-3, 48 h, read-out: Activity
[4] = Cytotoxicity against human NCI-ADR-RES cells assessed as cell growth at 10 uM after 48 hrs by SRB assay relative to control; format: functional; settings: read-out: Activity
[5] = Cytotoxicity against human OVCAR8 cells assessed as cell growth at 10 uM after 48 hrs by SRB assay relative to control; format: functional; settings: OVCAR-8, 48 h, read-out: Activity
[6] = Cytotoxicity against human OVCAR5 cells assessed as cell growth at 10 uM after 48 hrs by SRB assay relative to control; format: functional; settings: OVCAR-5, 48 h, read-out: Activity
MDA-MB-231 = assay: Cytotoxicity against human MDA-MB-231 cells assessed as growth inhibition after 24 hrs by MTT assay; format: cell-based; settings: MDA-MB-231, 24 h
[7] = Cytotoxicity against human OVCAR3 cells assessed as cell growth at 10 uM after 48 hrs by SRB assay relative to control; format: functional; settings: OVCAR-3, 48 h, read-out: Activity
IGROV-1 = assay: Cytotoxicity against human IGROV1 cells assessed as cell growth at 10 uM after 48 hrs by SRB assay relative to control; format: functional; settings: IGROV-1, 48 h, read-out: Activity
[8] = Cytotoxicity against human UACC257 cells assessed as cell growth at 10 uM after 48 hrs by SRB assay relative to control; format: functional; settings: UACC-257, 48 h, read-out: Activity
SK-MEL-5 = assay: Cytotoxicity against human SK-MEL-5 cells assessed as cell growth at 10 uM after 48 hrs by SRB assay relative to control; format: functional; settings: SK-MEL-5, 48 h, read-out: Activity
SK-MEL-2 = assay: Cytotoxicity against human SK-MEL-2 cells assessed as cell growth at 10 uM after 48 hrs by SRB assay relative to control; format: functional; settings: SK-MEL-2, 48 h, read-out: Activity
U-251 = assay: Cytotoxicity against human U251 cells assessed as cell growth at 10 uM after 48 hrs by SRB assay relative to control; format: functional; settings: U-251, 48 h, read-out: Activity
SNB-75 = assay: Cytotoxicity against human SNB75 cells assessed as cell growth at 10 uM after 48 hrs by SRB assay relative to control; format: functional; settings: SNB-75, 48 h, read-out: Activity
SF-539 = assay: Cytotoxicity against human SF539 cells assessed as cell growth at 10 uM after 48 hrs by SRB assay relative to control; format: functional; settings: SF-539, 48 h, read-out: Activity
SNB-19 = assay: Cytotoxicity against human SNB19 cells assessed as cell growth at 10 uM after 48 hrs by SRB assay relative to control; format: functional; settings: SNB-19, 48 h, read-out: Activity
KM12 = assay: Cytotoxicity against human KM12 cells assessed as cell growth at 10 uM after 48 hrs by SRB assay relative to control; format: functional; settings: KM12, 48 h, read-out: Activity
HT-29 = assay: Cytotoxicity against human HT-29 cells assessed as cell growth at 10 uM after 48 hrs by SRB assay relative to control; format: functional; settings: HT-29, 48 h, read-out: Activity
[9] = Cytotoxicity against human HCT15 cells assessed as cell growth at 10 uM after 48 hrs by SRB assay relative to control; format: functional; settings: HCT-15, 48 h, read-out: Activity
HCC 2998 = assay: Cytotoxicity against human HCC2998 cells assessed as cell growth at 10 uM after 48 hrs by SRB assay relative to control; format: functional; settings: HCC 2998, 48 h, read-out: Activity
[10] = Cytotoxicity against human HCT116 cells assessed as cell growth at 10 uM after 48 hrs by SRB assay relative to control; format: functional; settings: HCT-116, 48 h, read-out: Activity
COLO 205 = assay: Cytotoxicity against human COLO205 cells assessed as cell growth at 10 uM after 48 hrs by SRB assay relative to control; format: functional; settings: COLO 205, 48 h, read-out: Activity
HOP-62 = assay: Cytotoxicity against human HOP62 cells assessed as cell growth at 10 uM after 48 hrs by SRB assay relative to control; format: functional; settings: HOP-62, 48 h, read-out: Activity
A549 = assay: Cytotoxicity against human A549 cells assessed as cell growth at 10 uM after 48 hrs by SRB assay relative to control; format: functional; settings: A549, 48 h, read-out: Activity
RPMI-8226 = assay: Cytotoxicity against human RPMI8226 cells assessed as cell growth at 10 uM after 48 hrs by SRB assay relative to control; format: functional; settings: RPMI-8226, 48 h, read-out: Activity
K562 = assay: Cytotoxicity against human K562 cells assessed as cell growth at 10 uM after 48 hrs by SRB assay relative to control; format: functional; settings: K562, 48 h, read-out: Activity
HL-60(TB) = assay: Cytotoxicity against human HL-60(TB) cells assessed as cell growth at 10 uM after 48 hrs by SRB assay relative to control; format: functional; settings: HL-60, 48 h, read-out: Activity
CCRF-CEM = assay: Cytotoxicity against human CCRF-CEM cells assessed as cell growth at 10 uM after 48 hrs by SRB assay relative to control; format: functional; settings: read-out: Activity
MCF7 = assay: Growth inhibition of human MCF7 cells after 72 hrs by MTT assay; format: functional, cell-based; settings: MCF7, 72 h

Structure (SMILES) | growth at 10 µM (T47D) | growth at 10 µM [1] | growth at 10 µM [2] | growth at 10 µM (TK-10) | growth at 10 µM (SN12C) | growth at 10 µM (RXF 393) | growth at 10 µM (ACHN) | growth at 10 µM (786-0) | growth at 10 µM (A498) | growth at 10 µM [3] | growth at 10 µM [4] | growth at 10 µM [5] | growth at 10 µM [6] | pIC50 (MDA-MB-231) | growth at 10 µM [7] | growth at 10 µM (IGROV-1) | growth at 10 µM [8] | growth at 10 µM (SK-MEL-5) | growth at 10 µM (SK-MEL-2) | growth at 10 µM (U-251) | other results
CC(C)=CCC[C@H](C)c1ccc(C)c(CNCCCCCO)c1O | 99.1% | 88.4% | 79.5% | 92.2% | 98% | 84.6% | 97.7% | 87.3% | 82.6% | 99.4% | 86.8% | 98% | 99.4% | < 4.70 | 84.2% | 91.1% | 93.2% | 84.9% | 97.6% | 82.9% | growth at 10 µM (SNB-75): 77.2%; growth at 10 µM (SF-539): 92.1%; growth at 10 µM (SNB-19): 94.6%; growth at 10 µM (KM12): 97.3%; growth at 10 µM (HT-29): 55%; growth at 10 µM [9]: 86.1%; growth at 10 µM (HCC 2998): 73%; growth at 10 µM [10]: 78%; growth at 10 µM (COLO 205): 105%; growth at 10 µM (HOP-62): 88.4%; growth at 10 µM (A549): 91.5%; growth at 10 µM (RPMI-8226): 85.3%; growth at 10 µM (K562): 60.2%; growth at 10 µM (HL-60(TB)): 87.7%; growth at 10 µM (CCRF-CEM): 96.5%; pIC50 (MCF7): 5.12
COc1ccc(CCNCc2c(C)ccc([C@@H](C)CCC=C(C)C)c2O)cc1OC | 69.8% | 89.6% | 71% | 90.1% | 87.1% | 80.8% | 87.1% | 80.4% | 53.4% | 94.8% | 83.4% | 80.4% | 96.6% | < 4.70 | 90.1% | 68.8% | 78.7% | 78% | 99.9% | 76.7% | growth at 10 µM (SNB-75): 66.1%; growth at 10 µM (SF-539): 88.9%; growth at 10 µM (SNB-19): 90.8%; growth at 10 µM (KM12): 89.9%; growth at 10 µM (HT-29): 48.9%; growth at 10 µM [9]: 92.2%; growth at 10 µM (HCC 2998): 15.7%; growth at 10 µM [10]: 58%; growth at 10 µM (COLO 205): 67.9%; growth at 10 µM (HOP-62): 89%; growth at 10 µM (A549): 85.8%; growth at 10 µM (RPMI-8226): 55.8%; growth at 10 µM (K562): 44.5%; growth at 10 µM (HL-60(TB)): 85.6%; growth at 10 µM (CCRF-CEM): 80.1%; pIC50 (MCF7): < 4.70
CC(C)=CCC[C@H](C)c1ccc(C)c2c1OCN(CC1CCNCC1)C2 | -94.4% | 64.3% | 59.4% | 75% | 47% | 55.2% | 64% | -60.1% | 64% | 87% | 83.5% | 75.3% | 76% | < 4.70 | 77.2% | 78.7% | 24.6% | 30% | 95% | -13% | growth at 10 µM (SNB-75): 62%; growth at 10 µM (SF-539): 73%; growth at 10 µM (SNB-19): 73%; growth at 10 µM (KM12): 38.4%; growth at 10 µM (HT-29): -68.5%; growth at 10 µM [9]: 39.8%; growth at 10 µM (HCC 2998): -82.1%; growth at 10 µM [10]: -37.2%; growth at 10 µM (COLO 205): 75.9%; growth at 10 µM (HOP-62): 80%; growth at 10 µM (A549): 54.1%; growth at 10 µM (RPMI-8226): 23.7%; growth at 10 µM (K562): 0.57%; growth at 10 µM (HL-60(TB)): 13.8%; growth at 10 µM (CCRF-CEM): 26.7%; pIC50 (MCF7): 5.09
CC(C)=CCC[C@H](C)c1ccc(C)c2c1OCN(CCO)C2 | 70% | 75.6% | 76.9% | 88.4% | 79.6% | 52.4% | 90.1% | 61% | 47.2% | 105% | 73.5% | 86.3% | 83.7% | < 4.70 | 86.1% | 66.7% | 92.3% | 81.2% | 99.2% | 85.1% | growth at 10 µM (SNB-75): 58.7%; growth at 10 µM (SF-539): 88.2%; growth at 10 µM (SNB-19): 57.9%; growth at 10 µM (KM12): 103%; growth at 10 µM (HT-29): 68.7%; growth at 10 µM [9]: 105%; growth at 10 µM (HCC 2998): 84.4%; growth at 10 µM [10]: 71.8%; growth at 10 µM (COLO 205): 119%; growth at 10 µM (HOP-62): 80.4%; growth at 10 µM (A549): 82.4%; growth at 10 µM (RPMI-8226): 83.2%; growth at 10 µM (K562): 77.7%; growth at 10 µM (HL-60(TB)): 90.8%; growth at 10 µM (CCRF-CEM): 87.5%; pIC50 (MCF7): 5.08
